From publication PMC5797744, “Molecular Features Underlying Selectivity in Chicken Bitter Taste Receptors” (Frontiers in Molecular Biosciences, 2018)

Biological target: T1, ggTas2r2 (Gallus gallus, UniProt A0A1D5PXM6)
T1 construct: gene LOC101747503; transient expression in HEK 293T stably expressing Galpha16gust44; printed residues Gly85, Trp88, Asn92, Tyr180, Leu184, Tyr243, Ser246, Gln250
T1 sequence (A0A1D5PXM6 1-311): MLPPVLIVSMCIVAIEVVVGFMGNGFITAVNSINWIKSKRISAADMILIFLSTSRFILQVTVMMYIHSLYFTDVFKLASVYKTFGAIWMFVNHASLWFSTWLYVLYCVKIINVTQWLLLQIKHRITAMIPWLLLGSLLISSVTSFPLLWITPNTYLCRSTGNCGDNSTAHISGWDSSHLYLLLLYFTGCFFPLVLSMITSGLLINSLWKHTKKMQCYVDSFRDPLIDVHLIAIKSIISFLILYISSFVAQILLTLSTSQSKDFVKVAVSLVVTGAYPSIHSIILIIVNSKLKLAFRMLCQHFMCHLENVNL
Test: calcium mobilization, Fluo4-AM, FLIPR, dose-response
Format: cell-based
Conditions: agonist; HEK 293T with Galpha16gust44; 2.5 mM probenecid at loading

SMILES	calcium mobilization, Fluo4-AM, FLIPR, dose-response
CCOc1ccc2nccc([C@@H](O)[C@@H]3C[C@@H]4CCN3C[C@@H]4CC)c2c1 [ethylhydrocupreine]	Epiquinidine and ethylhydrocupreine can still activate ggTas2r2 and ggTas2r7
C=C[C@H]1CN2CC[C@H]1C[C@@H]2[C@H](O)c1ccnc2ccc(OC)cc12 [epiquinidine]	Epiquinidine and ethylhydrocupreine can still activate ggTas2r2 and ggTas2r7
